Measurements: PMC12615753, “Glutathione as a taste modulator: molecular mechanisms of interaction with umami and sweet taste receptors” (Food Chemistry: Molecular Sciences, 2025)

What was measured:
hTAS1R3 = hTAS1R3 (Homo sapiens, UniProt Q7RTX0); settings: GSH alone; Fig. 5B
Protocol: HEK293T/17 cells (ATCC CRL-11268) were seeded into clear bottom black 96-well plates coated with poly-D-lysine at a density of 32500 cells/well in 100 μL of DMEM containing 4.5 g/L glucose and supplemented with penicillin/streptomycin, 2 mM GlutaMAX and 10 % dialyzed fetal bovine serum. The plates were incubated for 24 h at 37 °C and 7.3 % CO2 in a humidified atmosphere. After incubation, using Fugene® 4 K (0.46 μL/well, Promega, Illkirch, France), the cells were transiently transfected with pcDNA3-hTAS1R1-WT (60 ng/well) or TAS1R1 mutants, pcDNA4-rTAS1R3 (60 ng/well), pcDNA3-Gα15i2 (10 ng/well), and pGP-CMV-GCaMP6s (Addgene #40753; 10 ng/well) as a genetically encoded calcium indicator. […] After 20 s of basal fluorescence calcium measurement, the cells were stimulated via automatic injection of a range of compounds in eight wells, and the signal emission was recorded for an additional 70 s, via a FlexStation 3® fluorometric microplate reader (Molecular Devices, San Jose, CA, USA). […] The emitted fluorescence was measured at a wavelength of 510 nm after excitation at 488 nm. […] For each well, the decrease in the raw fluorescence as the relative fluorescence changed was calculated as ΔF/F0. Replicates were averaged for the wells subjected to the same stimuli, the background signal was subtracted, and the fluorescence changes in mock-transfected cells were subtracted. […]

hTAS1R1 Q278A/rTAS1R3 = target: T1, hTAS1R1 Q278A/rTAS1R3 (Homo sapiens, UniProt Q7RTX1, Q278A); assay: Calcium assay, hTAS1R1 mutant co-expressed with rTAS1R3; assay type: cell-based, rat
T1 construct: expressed in transfected cells; host or cells: HEK293T/17 (ATCC CRL-11268)
T1 sequence (Q7RTX1 21-841 Q278A): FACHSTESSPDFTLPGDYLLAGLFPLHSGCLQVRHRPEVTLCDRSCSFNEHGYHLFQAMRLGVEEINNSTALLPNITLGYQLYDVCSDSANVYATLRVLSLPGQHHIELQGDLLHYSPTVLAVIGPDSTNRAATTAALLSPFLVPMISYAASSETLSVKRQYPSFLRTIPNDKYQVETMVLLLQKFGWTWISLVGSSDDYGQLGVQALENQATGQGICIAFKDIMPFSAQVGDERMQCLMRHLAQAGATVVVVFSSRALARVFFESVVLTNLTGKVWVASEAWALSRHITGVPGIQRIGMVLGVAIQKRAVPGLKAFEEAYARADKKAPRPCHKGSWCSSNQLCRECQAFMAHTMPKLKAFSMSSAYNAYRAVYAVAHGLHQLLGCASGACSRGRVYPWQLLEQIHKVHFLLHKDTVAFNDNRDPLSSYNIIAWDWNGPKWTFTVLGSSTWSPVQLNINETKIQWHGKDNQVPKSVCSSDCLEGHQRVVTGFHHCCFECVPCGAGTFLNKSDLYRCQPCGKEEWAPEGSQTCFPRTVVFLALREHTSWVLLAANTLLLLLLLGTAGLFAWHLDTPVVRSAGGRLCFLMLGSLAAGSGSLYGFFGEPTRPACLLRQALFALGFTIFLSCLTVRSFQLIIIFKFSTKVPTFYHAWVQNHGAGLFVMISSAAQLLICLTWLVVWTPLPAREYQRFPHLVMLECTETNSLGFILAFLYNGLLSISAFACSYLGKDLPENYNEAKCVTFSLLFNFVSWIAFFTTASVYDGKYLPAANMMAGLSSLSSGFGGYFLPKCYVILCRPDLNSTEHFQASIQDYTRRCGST
T1 sequence (Q923K1 21-858 partner): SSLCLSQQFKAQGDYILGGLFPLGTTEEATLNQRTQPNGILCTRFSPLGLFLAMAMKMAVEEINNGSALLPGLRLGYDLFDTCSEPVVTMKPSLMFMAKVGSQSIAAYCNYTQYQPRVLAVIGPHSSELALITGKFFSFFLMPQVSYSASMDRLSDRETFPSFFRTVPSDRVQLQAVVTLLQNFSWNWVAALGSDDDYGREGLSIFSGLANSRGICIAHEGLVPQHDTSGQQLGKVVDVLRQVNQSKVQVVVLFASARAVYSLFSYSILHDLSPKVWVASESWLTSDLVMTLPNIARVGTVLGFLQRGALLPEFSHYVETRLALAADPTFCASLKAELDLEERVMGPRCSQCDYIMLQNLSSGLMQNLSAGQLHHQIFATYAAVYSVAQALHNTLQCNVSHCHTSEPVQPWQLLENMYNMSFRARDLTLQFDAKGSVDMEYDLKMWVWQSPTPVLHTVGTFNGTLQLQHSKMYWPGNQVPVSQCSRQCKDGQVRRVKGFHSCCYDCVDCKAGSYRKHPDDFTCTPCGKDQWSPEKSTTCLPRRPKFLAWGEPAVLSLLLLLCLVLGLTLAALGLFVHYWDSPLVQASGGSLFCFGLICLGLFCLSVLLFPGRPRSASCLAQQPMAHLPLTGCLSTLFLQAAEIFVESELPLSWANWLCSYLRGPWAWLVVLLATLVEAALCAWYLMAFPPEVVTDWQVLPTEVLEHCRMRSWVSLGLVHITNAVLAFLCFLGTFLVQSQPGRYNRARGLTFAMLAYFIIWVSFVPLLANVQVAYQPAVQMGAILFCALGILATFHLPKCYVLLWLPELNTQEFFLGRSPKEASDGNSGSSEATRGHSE

hTAS1R3, sequence (Q7RTX0 21-852): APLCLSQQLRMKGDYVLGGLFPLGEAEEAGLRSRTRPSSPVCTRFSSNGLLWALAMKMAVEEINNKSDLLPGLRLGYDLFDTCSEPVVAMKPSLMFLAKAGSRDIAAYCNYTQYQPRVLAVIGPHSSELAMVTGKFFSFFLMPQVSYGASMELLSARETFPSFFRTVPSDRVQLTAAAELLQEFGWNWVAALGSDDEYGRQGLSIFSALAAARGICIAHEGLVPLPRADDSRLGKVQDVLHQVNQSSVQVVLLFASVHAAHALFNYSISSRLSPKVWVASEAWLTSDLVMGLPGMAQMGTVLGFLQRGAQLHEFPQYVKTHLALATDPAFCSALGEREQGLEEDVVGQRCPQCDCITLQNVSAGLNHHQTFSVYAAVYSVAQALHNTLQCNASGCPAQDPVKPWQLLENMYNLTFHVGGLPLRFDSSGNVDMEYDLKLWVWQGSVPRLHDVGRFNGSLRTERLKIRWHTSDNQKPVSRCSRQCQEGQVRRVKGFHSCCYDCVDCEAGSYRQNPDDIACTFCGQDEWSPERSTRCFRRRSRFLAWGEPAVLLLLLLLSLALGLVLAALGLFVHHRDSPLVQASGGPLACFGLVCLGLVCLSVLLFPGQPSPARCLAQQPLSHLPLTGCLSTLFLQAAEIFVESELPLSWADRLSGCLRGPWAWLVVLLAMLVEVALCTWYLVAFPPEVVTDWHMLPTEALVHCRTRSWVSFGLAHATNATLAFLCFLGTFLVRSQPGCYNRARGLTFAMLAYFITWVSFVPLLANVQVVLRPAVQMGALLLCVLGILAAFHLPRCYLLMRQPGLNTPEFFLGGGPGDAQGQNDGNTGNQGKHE

`N[C@@H](CCC(=O)N[C@@H](CS)C(=O)NCC(=O)O)C(=O)O` [GSH, γ-L-glutamyl-L-cysteinyl-glycine] was tested, and the “response of transfected cells” value (hTAS1R3) was “did not respond”, the EC50 (hTAS1R1 Q278A/rTAS1R3) was 3.42 ± 0.073 mM and the “effect of the added compound (1 mM) on the response to L-Glu” value (hTAS1R1 Q278A/rTAS1R3; Q278A) was “synergy was observed”. The “response to the agonist alone, vs WT” value (hTAS1R1 Q278A/rTAS1R3; Q278A) was “significantly increased the initial amplitude”, the “Max ∆F/F0” value (hTAS1R1 Q278A/rTAS1R3; Q278A, GSH) was 1.46 ± 0.01 and the “R1 = mutant EC50/WT EC50” value (hTAS1R1 Q278A/rTAS1R3; Q278A, GSH) was 1.4.
